Test results published in ChEMBL document CHEMBL1131985, “9-[(2'S,3'S)-3'-formyl-2',3'-dihydroxypropyl]adenine: a facile affinity-labeling probe of human S-adenosyl-L-homocysteine hydrolase” (Bioorg Med Chem Lett, 1999).

Tests used:
[1] = molecular target: T1, Adenosylhomocysteinase (Homo sapiens, UniProt P23526); test: Concentration with maximum apparent affinity (Kapp) for S-adenosyl-l-homocysteine (SAH) hydrolase was reported
Target sequence in this assay (P23526 2-432 limits assumed): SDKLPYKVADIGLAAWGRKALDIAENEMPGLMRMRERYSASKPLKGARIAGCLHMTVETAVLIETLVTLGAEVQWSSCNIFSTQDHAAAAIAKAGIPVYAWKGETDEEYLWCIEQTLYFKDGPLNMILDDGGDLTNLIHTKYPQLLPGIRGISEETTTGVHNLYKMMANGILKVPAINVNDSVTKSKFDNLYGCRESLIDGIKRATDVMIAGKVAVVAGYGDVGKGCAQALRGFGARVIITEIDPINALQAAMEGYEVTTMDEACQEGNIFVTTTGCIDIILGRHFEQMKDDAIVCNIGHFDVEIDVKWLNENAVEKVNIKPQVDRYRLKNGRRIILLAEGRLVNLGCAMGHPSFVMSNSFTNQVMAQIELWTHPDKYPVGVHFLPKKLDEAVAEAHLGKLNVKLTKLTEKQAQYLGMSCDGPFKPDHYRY

[2] = molecular target: T1, Adenosylhomocysteinase; test: Affinity and reactivity of an affinity-labeling reagent, was assessed from the inactivation constant value
Target sequence in this assay (P23526 2-432 limits assumed): as above

[3] = molecular target: T1, Adenosylhomocysteinase; test: Affinity and reactivity of an affinity-labeling reagent, was assessed from the inhibitory constant value
Target sequence in this assay (P23526 whole entry): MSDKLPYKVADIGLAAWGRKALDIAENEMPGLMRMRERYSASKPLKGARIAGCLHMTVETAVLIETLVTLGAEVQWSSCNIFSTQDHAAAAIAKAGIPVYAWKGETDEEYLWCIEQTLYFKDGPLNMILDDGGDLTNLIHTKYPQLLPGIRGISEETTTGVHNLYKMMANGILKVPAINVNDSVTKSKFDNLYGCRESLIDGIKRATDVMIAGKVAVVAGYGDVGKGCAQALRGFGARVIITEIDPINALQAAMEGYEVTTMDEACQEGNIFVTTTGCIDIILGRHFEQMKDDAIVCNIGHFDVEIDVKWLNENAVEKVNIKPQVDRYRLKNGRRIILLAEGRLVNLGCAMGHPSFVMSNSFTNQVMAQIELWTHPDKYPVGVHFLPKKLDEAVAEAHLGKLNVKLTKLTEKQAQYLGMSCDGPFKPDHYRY

Nc1ncnc2c1ncn2C[C@H](O)[C@H](O)C=O
K app [1]: 100 µM
K inact [2]: 0.09 min⁻¹
Ki [3]: 8.8 µM
